Test systems include H37Rv-Rv1777(R145S); QuinR mutant strains; M. tb H37Rv ΔcydKO A317V.
What all share (format): cell-based, Mycobacterium tuberculosis
Test [1] has as its system QuinR-M1 (QcrA Leu356Val).
In test [2] the test system is QuinR-M2 (QcrB Trp312Gly).
Test [3] has as its system QuinR-M3 (QcrB Gly175Ser).
Test [4] relates to complemented mutant (ΔcydAB).

Turning to `CCNc1nc(SCC)nc2ccccc12` [Compound 11626142], the “fold-change MIC compared to H37Rv (QuinR-M1)” value (“fold-change MIC … (QuinR-M1)” for short) in test [1] is recorded as 39 fold-change. Further, the “fold-change MIC compared to H37Rv (QuinR-M2)” value (from here on “fold-change MIC … (QuinR-M2)”) in test [2] stood at 1111 fold-change. For the same compound, the “fold-change MIC compared to H37Rv (QuinR-M3)” value (from here on “fold-change MIC … (QuinR-M3)”) in test [3] is given as 34 fold-change. In addition, the “fold change in the MIC, H37Rv-Rv1777(R145S)” value (from here on “fold change in the MIC”) with H37Rv-Rv1777(R145S) is at most 3 fold.

Consider `CCSc1nc(NC)c2cccc(F)c2n1` [Compound 11626252], for which the “fold-change MIC … (QuinR-M1)” value in test [1] turned out to be 25 fold-change. The “fold-change MIC … (QuinR-M2)” value in test [2] came out at 1470 fold-change. In addition, in test [3], the “fold-change MIC … (QuinR-M3)” value is 61 fold-change. For the same compound, in the test with H37Rv-Rv1777(R145S), the “fold change in the MIC” value is on record as at most 3 fold. The “ATP depletion in QuinR mutants” value in the test with QuinR mutant strains was “low-level ATP depletion”. Also, in the test with M. tb H37Rv ΔcydKO A317V, the “basal respiration after compound addition” value is listed as “did not cause a deviation in basal respiration”. The “static or cidal activity by CFU enumeration” value in test [4] is listed as “bacteriostatic effect is restored”.

For `CCSc1nc(NC)c2ccccc2n1` [Compound 11626141], in test [1], the “fold-change MIC … (QuinR-M1)” value was determined as 59 fold-change. In test [2], the “fold-change MIC … (QuinR-M2)” value is recorded as 1489 fold-change. The “fold-change MIC … (QuinR-M3)” value in test [3] is 92 fold-change. For the same compound, the “fold change in the MIC” value in the test with H37Rv-Rv1777(R145S) is listed as at most 3 fold.

On to `COc1nc2ccc(Br)cc2cc1[C@@H](c1ccccc1)[C@@](O)(CCN(C)C)c1cccc2ccccc12` [BDQ], for which the “ATP depletion in QuinR mutants” value with QuinR mutant strains is on record as “Significant ATP depletion”.

With `CCSc1nc(NC)c2ccc(F)c(F)c2n1` [Compound 11726148], the “fold-change MIC … (QuinR-M1)” value in test [1] amounted to 100 fold-change. Also, the “fold-change MIC … (QuinR-M2)” value in test [2] is recorded as 224 fold-change. The “fold-change MIC … (QuinR-M3)” value in test [3] came to 142 fold-change.

`Cc1c(OCC(F)(F)F)ccnc1CSc1nc2ccccc2[nH]1` [LPZs, lansoprazole sulfide, reference compound]: the “fold-change MIC … (QuinR-M1)” value in test [1] is above 71 fold-change. In test [2], the “fold-change MIC … (QuinR-M2)” value was above 71 fold-change. For the same compound, the “fold-change MIC … (QuinR-M3)” value in test [3] is on record as 1 fold-change.

As for `CCc1nc2ccc(Cl)cn2c1C(=O)NCc1ccc(N2CCC(c3ccc(OC(F)(F)F)cc3)CC2)cc1` [Compound Q203, Telacebec, reference compound], the “fold-change MIC … (QuinR-M1)” value in test [1] turned out to be 669 fold-change. In addition, the “fold-change MIC … (QuinR-M2)” value in test [2] came out at 742 fold-change. Besides, in test [3], the “fold-change MIC … (QuinR-M3)” value was 191 fold-change. The “ATP depletion in QuinR mutants” value in the test with QuinR mutant strains is on record as “Significant ATP depletion”.
